In paper PMC10763615, “Identification and engineering of potent cyclic peptides with selective or promiscuous binding through biochemical profiling and bioinformatic data analysis” (RSC Chemical Biology, 2023):
Like-named read-outs stand apart in the source and are kept apart here.

Key:
FGF-R1C ECD [1] = target: T1, FGF-R1C ECD (Homo sapiens, UniProt P11362); assay: biochemical
T1 sequence (P11362 22-376 limits assumed): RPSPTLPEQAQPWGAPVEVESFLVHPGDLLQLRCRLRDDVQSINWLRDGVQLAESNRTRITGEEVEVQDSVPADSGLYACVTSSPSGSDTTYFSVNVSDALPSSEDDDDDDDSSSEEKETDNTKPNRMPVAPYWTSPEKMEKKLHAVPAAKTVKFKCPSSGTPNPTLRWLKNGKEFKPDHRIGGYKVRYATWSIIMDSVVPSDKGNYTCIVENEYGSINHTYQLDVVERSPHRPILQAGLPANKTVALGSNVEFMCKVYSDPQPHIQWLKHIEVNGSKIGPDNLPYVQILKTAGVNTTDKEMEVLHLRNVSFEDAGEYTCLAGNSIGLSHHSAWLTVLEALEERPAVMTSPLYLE
Outline: (§1)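 Streptavidin biosensors carrying biotinylated FGF receptor ECD were immersed in peptide (~1 μM for crude single-point runs, a concentration series for purified peptides) and then in peptide-free buffer. KD was obtained by fitting the BLI association and dissociation curves.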

FGF-R3C ECD [2] = target: T2, FGF-R3C ECD (Homo sapiens, UniProt P22607); assay: biochemical
T2 sequence (P22607 23-375 limits assumed): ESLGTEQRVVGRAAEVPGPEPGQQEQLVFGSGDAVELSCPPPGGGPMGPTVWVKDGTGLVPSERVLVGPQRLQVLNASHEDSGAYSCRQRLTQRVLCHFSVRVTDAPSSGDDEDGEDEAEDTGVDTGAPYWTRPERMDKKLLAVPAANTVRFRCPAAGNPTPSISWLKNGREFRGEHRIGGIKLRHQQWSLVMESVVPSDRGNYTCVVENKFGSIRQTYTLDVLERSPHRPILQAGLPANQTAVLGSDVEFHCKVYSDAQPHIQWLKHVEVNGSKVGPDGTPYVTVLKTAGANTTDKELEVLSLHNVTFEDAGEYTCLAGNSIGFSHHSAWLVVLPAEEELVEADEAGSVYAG
Outline: as §1

[3] = target: T3, FGFR4/KLB (Fc-fused human FGF-R4 with beta-klotho) (Homo sapiens, UniProt P22455); assay: AlphaScreen FGF21 competitive binding assay
T3 sequence (P22455 22-369 limits assumed): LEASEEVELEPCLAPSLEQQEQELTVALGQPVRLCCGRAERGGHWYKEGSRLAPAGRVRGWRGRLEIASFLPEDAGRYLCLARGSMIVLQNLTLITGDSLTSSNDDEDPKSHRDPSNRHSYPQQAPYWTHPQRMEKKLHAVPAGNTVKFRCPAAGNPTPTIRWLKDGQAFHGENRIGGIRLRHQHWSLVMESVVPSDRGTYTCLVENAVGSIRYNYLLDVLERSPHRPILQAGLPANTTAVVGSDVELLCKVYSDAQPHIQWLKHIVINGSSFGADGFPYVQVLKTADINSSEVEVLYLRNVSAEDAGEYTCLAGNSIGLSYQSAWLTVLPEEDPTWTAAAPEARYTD

FGF-R4 ECD [4] = target: T4, FGF-R4 ECD (Homo sapiens, UniProt P22455); assay: multi-concentration BLI of purified peptides; type: binding; details: purified NNK library peptides
T4 construct: DNA constructs for the extracellular domain (ECD) of human FGF-; HPC4 (C); made in house; host or cells: HEK 293-6E
T4 sequence (P22455 22-369 limits assumed): T3 sequence (P22455 22-369 limits assumed)
Outline: as §1

FGF-R4 ECD [5] = target: T4, FGF-R4 ECD; assay: single concentration BLI of crude peptides; type: binding; details: crude NNK peptides, single concentration BLI (Table S3); read-out: KD (4)
Outline: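 BLI, streptavidin sensors loaded with biotinylated receptor ECD. Single-point: ~1 μM crude peptide, PBS pH7.4/0.05% Tween-20/0.01% BSA; association then dissociation in buffer. KD corrected for UPLC-CAD-determined concentration.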

FGF-R1C ECD [6] = target: T1, FGF-R1C ECD; assay: biochemical; type: binding; parameters: DNA constructs for the extracellular domain (ECD) of human FGF-; HPC4 (C); made in house; host or cells: HEK 293-6E
Outline: as §1

FGF-R3C ECD [7] = target: T2, FGF-R3C ECD; assay: biochemical; type: binding; parameters: DNA constructs for the extracellular domain (ECD) of human FGF-; HPC4 (C); made in house; host or cells: HEK 293-6E
Outline: as §1

[8] = target: T5, FGFR1c/KLB (Fc-fused human FGF-R1alpha(IIIc) with beta-klotho) (Homo sapiens, UniProt P11362); assay: AlphaScreen FGF21 competitive binding assay
T5 sequence (P11362 22-376 limits assumed): T1 sequence (P11362 22-376 limits assumed)

[9] = target: T6, FGFR3c/BKL (Fc-fused human FGF-R3alpha(IIIc) with beta-klotho) (Homo sapiens, UniProt P22607); assay: AlphaScreen FGF21 competitive binding assay
T6 sequence (P22607 23-375 limits assumed): T2 sequence (P22607 23-375 limits assumed)

Structure (SMILES)	Kd (FGF-R1C ECD [1]) [nM]	Kd (FGF-R3C ECD [2]) [nM]	R3C KD (nM) (FGF-R3C ECD [2]; purified NNK library peptides, multi-concentration BLI)	IC50 [3] [nM]	Kd (FGF-R4 ECD [4]) [nM]	Kd (FGF-R4 ECD [5]) [nM]	Kd (FGF-R1C ECD [6]) [nM]	Kd (FGF-R3C ECD [7]) [nM]	IC50 [8] [nM]	IC50 [9] [nM]	Kd (FGF-R1C ECD [1]; read-out: R1C KD, purified NNK library peptides, multi-concentration BLI) [nM]	Kd (FGF-R3C ECD [2]; read-out: R3C KD, purified NNK library peptides, multi-concentration BLI) [nM]	IC50 ([3]; read-out: R4 competitive IC50, purified peptides, Alphascreen vs biotinylated FGF21) [nM]	Kd (FGF-R1C ECD [6]; read-out: KD (1C)) [nM]	Kd (FGF-R3C ECD [7]; read-out: KD(3C)) [nM]	IC50 ([8]; read-out: R1C competitive IC50, purified peptides, Alphascreen vs biotinylated FGF21) [nM]	IC50 ([9]; read-out: R3C competitive IC50, purified peptides, Alphascreen vs biotinylated FGF21) [nM]
CC[C@H](C)[C@@H]1NC(=O)[C@@H](NC(=O)[C@@H](N)CCSC)CSSC[C@@H](C(=O)NCC(=O)N[C@@H](CO)C(=O)NCC(=O)N[C@@H](CO)C(=O)N[C@@H](CC(=O)O)C(=O)N[C@@H](Cc2ccc(O)cc2)C(=O)N[C@@H](CCCCN)C(=O)N[C@@H](CC(=O)O)C(=O)N[C@@H](CC(=O)O)C(=O)N[C@@H](CC(=O)O)C(=O)N[C@@H](CC(=O)O)C(=O)N[C@@H](CCCCN)C(N)=O)NC(=O)[C@@H]2CCCN2C(=O)[C@H]([C@@H](C)CC)NC(=O)[C@H](Cc2ccccc2)NC(=O)[C@@H]2CCCN2C(=O)[C@H](CCSC)NC(=O)[C@H](Cc2c[nH]cn2)NC(=O)[C@H]([C@@H](C)CC)NC(=O)[C@H](CC(=O)O)NC(=O)[C@H](Cc2ccccc2)NC1=O [3C.2]	> 1000	> 1000	did not show any binding	> 1000	> 1000	> 10000	> 10000	> 10000	> 1000	> 1000							
CC[C@H](C)[C@@H]1NC(=O)[C@@H]2CCCN2C(=O)[C@H](Cc2ccccc2)NC(=O)[C@@H]2CCCN2C(=O)[C@H](Cc2c[nH]c3ccccc23)NC(=O)[C@@H]2CCCN2C(=O)[C@H](Cc2ccccc2)NC(=O)[C@H](CCCCN)NC(=O)[C@H]([C@@H](C)O)NC(=O)[C@@H](NC(=O)[C@@H](N)CCSC)CSSC[C@@H](C(=O)NCC(=O)N[C@@H](CO)C(=O)NCC(=O)N[C@@H](CO)C(=O)N[C@@H](CC(=O)O)C(=O)N[C@@H](Cc2ccc(O)cc2)C(=O)N[C@@H](CCCCN)C(=O)N[C@@H](CC(=O)O)C(=O)N[C@@H](CC(=O)O)C(=O)N[C@@H](CC(=O)O)C(=O)N[C@@H](CC(=O)O)C(=O)N[C@@H](CCCCN)C(N)=O)NC(=O)[C@H](C)NC(=O)[C@H](Cc2c[nH]c3ccccc23)NC(=O)[C@H](Cc2ccccc2)NC1=O [1C.8]	323	> 1000		431	464	70	155	47	112	> 1000							
CC[C@H](C)[C@@H]1NC(=O)[C@@H](NC(=O)[C@H](CCSC)NC(C)=O)CSSC[C@@H](C(=O)NCC(=O)N[C@@H](CO)C(=O)NCC(=O)N[C@@H](CO)C(=O)N[C@@H](CC(=O)O)C(=O)N[C@@H](Cc2ccc(O)cc2)C(=O)N[C@@H](CCCCN)C(=O)N[C@@H](CC(=O)O)C(=O)N[C@@H](CC(=O)O)C(=O)N[C@@H](CC(=O)O)C(=O)N[C@@H](CC(=O)O)C(=O)N[C@@H](CCCCN)C(N)=O)NC(=O)[C@H](C(C)C)NC(=O)[C@H](C(C)C)NC(=O)[C@H](Cc2c[nH]c3ccccc23)NC(=O)[C@H](Cc2ccccc2)NC(=O)[C@H](CC(=O)O)NC(=O)[C@H](CO)NC(=O)[C@H](CC(C)C)NC(=O)[C@H](CCCNC(=N)N)NC(=O)[C@H](Cc2ccc(O)cc2)NC1=O [1C.6]	53	361		60	70	47	19	12	29	18							
CC[C@H](C)[C@@H]1NC(=O)[C@@H](NC(=O)[C@H](CCSC)NC(C)=O)CSSC[C@@H](C(=O)NCC(=O)N[C@@H](CO)C(=O)NCC(=O)N[C@@H](CO)C(=O)N[C@@H](CC(=O)O)C(=O)N[C@@H](Cc2ccc(O)cc2)C(=O)N[C@@H](CCCCN)C(=O)N[C@@H](CC(=O)O)C(=O)N[C@@H](CC(=O)O)C(=O)N[C@@H](CC(=O)O)C(=O)N[C@@H](CC(=O)O)C(=O)N[C@@H](CCCCN)C(N)=O)NC(=O)[C@H](Cc2ccccc2)NC(=O)[C@H]([C@@H](C)CC)NC(=O)[C@H](Cc2ccccc2)NC(=O)[C@@H]2CCCN2C(=O)[C@H](CC(C)C)NC(=O)[C@H](Cc2ccccc2)NC(=O)[C@H](CC(C)C)NC(=O)[C@H](CC(=O)O)NC(=O)[C@H](Cc2ccccc2)NC1=O [3C.1]	> 1000	95		> 1000	> 1000	> 10000	> 10000	64	> 1000	204							
CC[C@H](C)[C@@H]1NC(=O)[C@@H](NC(=O)[C@@H](N)CCSC)CSSC[C@@H](C(=O)NCC(=O)N[C@@H](CO)C(=O)NCC(=O)N[C@@H](CO)C(=O)N[C@@H](CC(=O)O)C(=O)N[C@@H](Cc2ccc(O)cc2)C(=O)N[C@@H](CCCCN)C(=O)N[C@@H](CC(=O)O)C(=O)N[C@@H](CC(=O)O)C(=O)N[C@@H](CC(=O)O)C(=O)N[C@@H](CC(=O)O)C(=O)N[C@@H](CCCCN)C(N)=O)NC(=O)[C@H](CCCNC(=N)N)NC(=O)[C@H]([C@@H](C)O)NC(=O)[C@H](Cc2c[nH]c3ccccc23)NC(=O)[C@H](Cc2ccc(O)cc2)NC(=O)[C@H](CCC(N)=O)NC(=O)[C@H](Cc2ccc(O)cc2)NC(=O)[C@H]([C@@H](C)O)NC(=O)[C@H](Cc2ccc(O)cc2)NC(=O)[C@H](Cc2c[nH]c3ccccc23)NC(=O)[C@H](CCCCN)NC(=O)CNC1=O [1C.1]	111	> 1000		> 1000	> 1000	> 10000	488	> 10000	249	> 1000							
CC[C@H](C)[C@@H]1NC(=O)[C@H](Cc2ccccc2)NC(=O)[C@@H]2CCCN2C(=O)[C@H](C(C)C)NC(=O)[C@H](Cc2ccccc2)NC(=O)[C@H](CO)NC(=O)[C@H](CC(=O)O)NC(=O)[C@H](Cc2ccccc2)NC(=O)[C@H](CC(C)C)NC(=O)[C@@H](NC(=O)[C@@H](N)CCSC)CSSC[C@@H](C(=O)NCC(=O)N[C@@H](CO)C(=O)NCC(=O)N[C@@H](CO)C(=O)N[C@@H](CC(=O)O)C(=O)N[C@@H](Cc2ccc(O)cc2)C(=O)N[C@@H](CCCCN)C(=O)N[C@@H](CC(=O)O)C(=O)N[C@@H](CC(=O)O)C(=O)N[C@@H](CC(=O)O)C(=O)N[C@@H](CC(=O)O)C(=O)N[C@@H](CCCCN)C(N)=O)NC(=O)[C@H](Cc2ccccc2)NC1=O [3C.3]					> 1000	> 10000					> 1000	21	> 1000	> 10000	29	> 1000	95
